# Measured values published in patent publication US20040028714A1, “Composition having insect repellent characteristics” (priority 2000, published 2004).
# Several values for one entry are separate records, joined by “and”; a condition that tells them apart may be missing. Identical values can stand only once.
# Tested on: German cockroaches (Blatella Germanica)
# Assay: Cockroach repellency in tray with half-treated vinyl, compared with DEET and N-methyl-neodecanamide (Example 3)
# Assay type: in vivo
# Details: 20 mg/m^2 on vinyl; for Number of Cockroaches present, Treated Section / Number of Cockroaches present, Untreated Section / Number of Cockroaches, Dead: single replicates (n = 50); for Number of Cockroaches present, Treated Section, Total / Number of Cockroaches present, Untreated Section, Total / Number of Cockroaches, Dead, Total: total of 4 replicates (200); for Percentage Dead / Percentage Present, Treated Section / Percentage Present, Untreated Section: cockroaches
# Procedure: The effectiveness of compound 2 (example 1) as an insect repellent was determined using German cockroaches exposed to a formica surface partially treated/partially un-treated, and was directly compared to the repellency of the well known insect repellents DEET (N,N-diethyl-meta-toluamide) and N-methyl-neodecanamide. The study was conducted in an air conditioned laboratory at a temperature of 22°±2° C. under a normal day/night cycle, using German cockroaches (Blatella Germanica) of mixed sex and age. The study was conducted over a 7 days period and the repellent effectiveness was assessed 1, 3, 5 and 7 days after cockroach introduction. Each tray used in the study consisted of a melamine square tray of sides 1.8m×1.8m and 20 cm high walls. The upper part of the wall was provided with electrical strip, which prevented cockroaches escaping. A square of vinyl 90 cm×180 cm was treated with the test compound at 20 mg/m^2. This was achieved by soaking a paper wipe (Rag on a Roll, ca. 20 cm×20 cm) in a solution of the test compound in ethanol, squeezing out the excess liquid and wiping over the surface to give the required coverage. This was checked by weighing the cloth after application. The surface was allowed to dry. The treated vinyl square was placed in one half of the tray. A similar untreated square was placed in the other half of the tray. This square was treated with ethanol alone. Two sheets of formica (30 cm×30 cm) were placed at one corner of each tray, one on the treated surface and one on the untreated surface. This acted as a cockroach harbourage. The formica sheet to be used in the treated section was treated at the same rate as the treated formica. The formica was placed on two 1 cm high bottle tops to allow cockroaches access under the formica. 50 German cockroaches were added (15 adults and 35 nymphs) to the middle of the tray. No food and water was supplied for these cockroaches. At 1, 2, 3 and 7 days after cockroach introduction the number of cockroaches under each harbourage was counted. After each count the harbourage position was change to avoid the possibility of habituation to one location, the harbourages were replaced and new cockroaches were added to replace any dead cockroaches. The above was repeated 3 times to provide a total of 4 replicates.
# [1] = 1 day after cockroach introduction
# [2] = 2 days after cockroach introduction
# [3] = 3 days after cockroach introduction
# [4] = 7 days after cockroach introduction
structure (smiles),measurement,setting,value
"CCNC(=O)C1CC(C)CCC1C(C)C (stereo not drawn) [Compound 2, N-ethyl-p-menthane-3-carboxamide]",cockroach repellency (in words),over 7 days,excellent repellency
same,"Number of Cockroaches present, Treated Section",[1],0 (3×) and 3
same,"Number of Cockroaches present, Untreated Section",[1],50 (2×) and 49 and 47
same,"Number of Cockroaches, Dead",[1],0 (3×) and 1
same,"Number of Cockroaches present, Treated Section, Total",[1],3
same,"Number of Cockroaches present, Untreated Section, Total",[1],196
same,"Number of Cockroaches, Dead, Total",[1],1
same,"Number of Cockroaches present, Treated Section",[2],0 (3×) and 1
same,"Number of Cockroaches present, Untreated Section",[2],50 (2×) and 49 (2×)
same,"Number of Cockroaches, Dead",[2],0 (3×) and 1
same,"Number of Cockroaches present, Treated Section, Total",[2],1
same,"Number of Cockroaches present, Untreated Section, Total",[2],198
same,"Number of Cockroaches, Dead, Total",[2],1
same,"Number of Cockroaches present, Treated Section",[3],6 and 3 and 0 (2×)
same,"Number of Cockroaches present, Untreated Section",[3],44 and 47 and 50 and 49
same,"Number of Cockroaches, Dead",[3],0 (3×) and 1
same,"Number of Cockroaches present, Treated Section, Total",[3],9
same,"Number of Cockroaches present, Untreated Section, Total",[3],190
same,"Number of Cockroaches, Dead, Total",[3],1
same,"Number of Cockroaches present, Treated Section",[4],7 and 19 and 3 and 11
same,"Number of Cockroaches present, Untreated Section",[4],43 and 30 and 47 and 38
same,"Number of Cockroaches, Dead",[4],0 (2×) and 1 (2×)
same,"Number of Cockroaches present, Treated Section, Total",[4],40
same,"Number of Cockroaches present, Untreated Section, Total",[4],158
same,"Number of Cockroaches, Dead, Total",[4],2
same,Percentage Dead,1 day after treatment,0.5%
same,"Percentage Present, Treated Section",1 day after treatment,1.5%
same,"Percentage Present, Untreated Section",1 day after treatment,98.0%
same,Percentage Dead,2 days after treatment,0.5%
same,"Percentage Present, Treated Section",2 days after treatment,0.5%
same,"Percentage Present, Untreated Section",2 days after treatment,99.0%
same,Percentage Dead,3 days after treatment,0.5%
same,"Percentage Present, Untreated Section",3 days after treatment,95.0%
same,Percentage Dead,7 days after treatment,1.0%
same,"Percentage Present, Treated Section",7 days after treatment,20%
same,"Percentage Present, Untreated Section",7 days after treatment,79.0%
